Data: article PMC9964117, “Inhibitors against Two PDZ Domains of MDA-9 Suppressed Migration of Breast Cancer Cells” (International Journal of Molecular Sciences, 2023)
Residue numbers refer to the chain shown, from its start. Read-outs that look alike come from different tables or passages of the source.

Tests used:
[1] = tested on: glioma cells; parameters: method as in PMID 28011764; conditions: cited from earlier work
[2] = tested on: prostate cancer or neuroblastoma; parameters: method as in PMID 31406249, PMID 31345950; conditions: cited from earlier work
[3] = target: T1, MDA-9 PDZ1 domain (Homo sapiens, UniProt O00560); parameters: method as in PMID 28011764; conditions: read-out: Affinity for MDA-9 PDZ1 domain; cited from earlier work
T1 construct: the N-terminal (1–109aa), PDZ1 (110–193aa), PDZ2 (194–274aa); made in house
T1 sequence (O00560 110-193): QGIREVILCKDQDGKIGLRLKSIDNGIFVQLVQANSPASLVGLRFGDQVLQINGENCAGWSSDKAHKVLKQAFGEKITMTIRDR

[4] = target: T2, MDA-9 PDZ2 domain (Homo sapiens, UniProt O00560); conditions: cited from earlier work
T2 construct: PDZ1 (110–193aa), PDZ2 (194–274aa), and the C-terminal (275–298aa); made in house
T2 sequence (O00560 194-274): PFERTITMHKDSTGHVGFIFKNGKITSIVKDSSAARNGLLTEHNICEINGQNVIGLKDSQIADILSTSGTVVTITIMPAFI

[5] = tested on: brain-tumor-bearing mice; parameters: method as in PMID 28011764; conditions: cited from earlier work
[6] = target: T3, MTSL-labeled C118/C166S mutant of MDA-9 PDZ1 domain (Homo sapiens, UniProt O00560, C166S); assay: NMR CSP titration against MTSL-labeled mutant; conditions: dose-dependent CSP, read-out: Binding affinity to MTSL-labeled C118/C166S mutant of PDZ1
T3 construct: the N-terminal (1–109aa), PDZ1 (110–193aa), PDZ2 (194–274aa); made in house
T3 sequence (O00560 110-193 C166S): T1 sequence (O00560 110-193) with C57S
Experimental: (§1) The ^15N-labelled PDZ1 and PDZ2 domains of MDA-9 were concentrated in the HEPES buffer (20 mM HEPES, 100 mM NaCl, 1 mM EDTA, 1 mM DTT, pH 7.0) to 0.05 mmol/L. The screening fragment compounds were then titrated to these ^15N-labeled MDA-9 PDZ1 or PDZ2 domain, respectively. Each HSQC profile was collected (at molar ratios of 0.0, 2.0, 4.0, 8.0, 16.0, and 32.0 at 25 °C) using an Agilent 700 MHz spectrometer. NMR spectra were analyzed using Sparky. The chemical shift changes (Δδ), relative to the free form of the PDZ1 or PDZ2 domain, were calculated as follows:(1) Δδ=(∆δH^1)^2+(0.2ΔδN^15)^2 where ∆δH^1 and ΔδN^15 denote the chemical shift changes of ^1H and ^15N, respectively.
(§2) According to this equation, the binding constants can be best fitted with a binding mode of 1:1: Δδobs=Δδmax([P]t+[L]t+Kd)−([P]t+[L]t+Kd)^2−4[P]t[L]t/2[P]t where [P]t and [L]t represent the concentrations of the protein and ligand, respectively. Δδobs represents the observed chemical shift changes, relative to the free-state protein.
(§3) The ^15N-labeled PDZ1 C118/C166S mutant and the PDZ2 C239S/D256C mutant were expressed by the method described above. After the dilution of the protein solution to 0.5 mg/mL with a 1-fold excess of Tris(2-carboxyethyl) phosphine (TCEP), the solution was incubated for 2 h at room temperature. […] WATERGATE spectra with T2 delays of 0.04 and 0.8 s were recorded. […]

[7] = target: T1, MDA-9 PDZ1 domain; assay: NMR chemical shift perturbation titration (1H-15N HSQC); conditions: 25 °C, pH 7.0, read-out: Binding affinity (Kd) to MDA-9 PDZ1 domain from dose-dependent CSPs
Experimental: (§4) NMR fragment-based screening was performed at 25 °C using an Agilent 700 MHZ spectrometer equipped with a 96-well autosampler (Agilent Technologies, Santa Clara, CA, USA). ^1H-^15N HSQC spectra were acquired from the ^15N-labeled MDA-9 PDZ1 and PDZ2 domains (0.05 mM). A fragment library of 890 compounds (Chembridge, SanDiego, CA, USA) and an approved drug library of 540 compounds (TargetMol, Boston, MA, USA) were pooled into cocktails, respectively, and each cocktail contained 10 compounds at 0.2 mM [39, 40]. The ^1H-^15N HSQC spectra were measured on an Agilent 700 MHz spectrometer at ligand/protein molar ratios ranging from 0.0 to 4.0.
as §1, with “^15N, respectively. […]” for “^15N, respectively.”

[8] = tested on: MDA-MB-231 cells; assay: Wound-healing assay; assay type: cell-based; conditions: 100 μM each compound, 0 and 24 h, relative to DMSO
Experimental: MDA-MB-231 cells were spread in 6-well plate culture dishes, where sh-MDA-9 cells were used as a positive control. DMSO (control), PI1A 100 μM, PI2A 100 μM, and both PI1A and PI2A 100 μM were added to the MDA-MB-231 cells, respectively. On newly grown monolayer cells, […] of the tip was used to line the central area of cell growth. Next, excess cells were washed away with PBS buffer. The cells were then cultured for the experimentally-determined period of time (0 h or 24 h). Lastly, the cell culture plates were removed separately and the peripheral cells were observed under a microscope to determine whether they had migrated to the scratched area.

[9] = tested on: MDA-MB-231 cells; assay: CCK8 cell viability assay; assay type: cell-based; conditions: 48 h treatment
Experimental: The MDA-MB-231 cells were obtained by a gift. CCK8 assay was used to assess the effects of PI1A or PI2A on the viability of MDA-MB-231 cells. Cells were placed in 96-well plates and treated with different concentrations of DMSO, PI1A, or PI2A for 48 h. Then, 10 μL of CCK8 solution was added to the wells. The 96-well plates were incubated in a CO2 incubator at 37 °C for another 1 h. OD values were measured at 450 nm using a CLARIOstar (BMG LABTECH) plate reader.

[10] = target: T1, MDA-9 PDZ1 domain; assay: Competitive fluorescence polarization with FITC-peptide; conditions: 80 μM PDZ1, 500 nM FITC-peptide; read-out: Binding affinity to PDZ1 from competitive FP
Experimental: (§5) For competitive FP experiments with the FITC-peptide, the PDZ1 domain concentration was set at 80 μM and the PDZ2 domain concentration at 250 μM. After that, each aliquot of the 200 μL sample contained 500 nM of the FITC-peptide, 80 μM of the PDZ1 or 250 μM of the PDZ2 domain, as well as different concentrations of PI1A or PI2A. A concentration range of 0–200 μM was administered for PI1A while a concentration range of 0–600 μM was administered for PI2A. Samples were repeated 3 times for each experimental group. The dissociation constants for the interactions between ligands and proteins were derived from the complete competitive FP equation proposed by Gerhard Wagner et al. (Biochemistry 2004). […]

[11] = target: T2, MDA-9 PDZ2 domain; assay: NMR chemical shift perturbation titration (1H-15N HSQC); assay type: binding
Experimental: as §4
as §1, with “^15N, respectively. […]” for “^15N, respectively.”

[12] = target: T4, H208A mutant of MDA-9 PDZ2 domain (Homo sapiens, UniProt O00560, H208A); assay: NMR CSP titration against mutant; assay type: binding
T4 construct: PDZ1 (110–193aa), PDZ2 (194–274aa), and the C-terminal (275–298aa); made in house
T4 sequence (O00560 194-274 H208A): T2 sequence (O00560 194-274) with H15A
Experimental: as §1, §2

[13] = target: T5, G210A mutant of MDA-9 PDZ2 domain (Homo sapiens, UniProt O00560, G210A); assay: NMR CSP titration against mutant; assay type: binding; conditions: relative to wild type
T5 construct: PDZ1 (110–193aa), PDZ2 (194–274aa), and the C-terminal (275–298aa); made in house
T5 sequence (O00560 194-274 G210A): T2 sequence (O00560 194-274) with G17A
Experimental: as §1, §2

[14] = target: T6, A255V mutant of MDA-9 PDZ2 domain (Homo sapiens, UniProt O00560, A255V); assay: NMR CSP titration against mutant; assay type: binding
T6 construct: PDZ1 (110–193aa), PDZ2 (194–274aa), and the C-terminal (275–298aa); made in house
T6 sequence (O00560 194-274 A255V): T2 sequence (O00560 194-274) with A62V
Experimental: as §1, §2

[15] = target: T7, V209A mutant of MDA-9 PDZ2 domain (Homo sapiens, UniProt O00560, V209A); assay: NMR CSP titration against mutant; assay type: binding; conditions: relative to wild type
T7 construct: PDZ1 (110–193aa), PDZ2 (194–274aa), and the C-terminal (275–298aa); made in house
T7 sequence (O00560 194-274 V209A): T2 sequence (O00560 194-274) with V16A
Experimental: as §1, §2

[16] = target: T8, V209I mutant of MDA-9 PDZ2 domain (Homo sapiens, UniProt O00560, V209I); assay: NMR CSP titration against mutant; assay type: binding
T8 construct: PDZ1 (110–193aa), PDZ2 (194–274aa), and the C-terminal (275–298aa); made in house
T8 sequence (O00560 194-274 V209I): T2 sequence (O00560 194-274) with V16I
Experimental: as §1, §2

[17] = target: T2, MDA-9 PDZ2 domain; assay: Competitive fluorescence polarization with FITC-peptide; conditions: 250 μM PDZ2, 500 nM FITC-peptide; read-out: Binding affinity to PDZ2 from competitive FP
Experimental: as §5

[18] = target: T9, MTSL-labeled C239S/D256C mutant of MDA-9 PDZ2 domain (Homo sapiens, UniProt O00560, C239S/D256C); assay: NMR CSP titration against MTSL-labeled mutant; assay type: binding; conditions: dose-dependent CSP
T9 construct: PDZ1 (110–193aa), PDZ2 (194–274aa), and the C-terminal (275–298aa); made in house
T9 sequence (O00560 194-274 C239S/D256C): T2 sequence (O00560 194-274) with C46S, D63C
Experimental: as §1, §2, §3

Row | SMILES | Invasion of glioma cells [1] | In vivo activity against prostate cancer or neuroblastoma [2] | Kd [3] [µM] | Binding to MDA-9 PDZ2 domain (in words) [4] | Survival rate in brain-tumor-bearing mice [5] | Kd [6] [µM] | Kd [7] [µM] | Migration of MDA-MB-231 cells (wound closure) [8] | Toxicity / viability of MDA-MB-231 cells (CCK8) [9] | Kd [10] [µM] | Binding to MDA-9 PDZ2 domain (in words) [11] | Binding to H208A mutant of PDZ2 (in words) [12] | Binding affinity to G210A mutant of PDZ2 (in words) [13] | Kd [14] [µM] | Binding affinity to V209A mutant of PDZ2 (in words) [15] | Kd [16] [µM] | Kd [17] [µM] | Kd ([11]; 25 °C, pH 7.0, read-out: Binding affinity (Kd) to MDA-9 PDZ2 domain by NMR titration) [µM] | Effect of MTSL labeling of C239S/D256C PDZ2 mutant on inhibitor binding affinity (in words) [18]
1 | Cc1cc(NC(=O)c2nc3nc4c(c(=O)n3[nH]2)CCC4)c(C)cc1NC(=O)CCc1nnc(-c2ccccc2)o1 [PDZ1i] | inhibited the invasion | exhibited in vivo activity | 21 | did not bind significantly | improved survival rate | – | – | – | – | – | – | – | – | – | – | – | – | – | –
2 | Cc1cc(Nc2ccccc2C(=O)O)ccc1Cl [PI1A] | – | – | – | – | – | 250 | 110 | suppressed the migration | not toxic | 170 | did not bind | – | – | – | – | – | – | – | –
3 | O=C(O)c1cc(-c2ccc(F)cc2)n[nH]1 [PI2A] | – | – | – | – | – | – | > 1000 | suppressed the migration | not toxic | – | – | incapable of binding | reduced binding affinities | > 5000 | reduced binding affinities | > 5000 | 510 | 500 | did not disrupt
